{"source": "ChEMBL document CHEMBL1151018", "about": "“Studies On uro'gen III synthase with modified bilanes” (Bioorg Med Chem Lett, 1994)", "note": "Active and inactive are the calls of the source. No cut-off for these calls is given here.", "data": [{"target": "T1, Uroporphyrinogen-III synthase (Homo sapiens) (UniProt P10746)", "T1 sequence (whole entry)": "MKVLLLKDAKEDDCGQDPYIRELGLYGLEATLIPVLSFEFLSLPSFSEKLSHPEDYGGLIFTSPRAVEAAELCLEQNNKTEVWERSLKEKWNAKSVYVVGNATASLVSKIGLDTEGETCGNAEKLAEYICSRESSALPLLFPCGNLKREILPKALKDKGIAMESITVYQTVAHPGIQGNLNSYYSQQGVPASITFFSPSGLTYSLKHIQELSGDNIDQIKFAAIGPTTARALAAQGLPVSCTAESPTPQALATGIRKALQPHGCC", "assay": "Compound was tested for its activity as substrate of Uroporphyrinogen III synthase; Poor substrate", "values": [{"smiles": "Cc1c(CCC(=O)O)c[nH]c1Cc1[nH]c(Cc2[nH]c(Cc3[nH]c(CO)c(CC(=O)O)c3CCC(=O)O)c(CC(=O)O)c2CCC(=O)O)c(CC(=O)O)c1CCC(=O)O", "Activity": "(+)"}]}, {"target": "T1, Uroporphyrinogen-III synthase (Homo sapiens)", "assay": "Compound was tested for its activity as substrate of Uroporphyrinogen III synthase; Yes", "values": [{"smiles": "O=C(O)CCc1c(CC(=O)O)c[nH]c1Cc1[nH]c(Cc2[nH]c(Cc3[nH]c(CO)c(CC(=O)O)c3CCC(=O)O)c(CC(=O)O)c2CCC(=O)O)c(CC(=O)O)c1CCC(=O)O", "Activity": "Active"}, {"smiles": "O=C(O)CCCc1c[nH]c(Cc2[nH]c(Cc3[nH]c(Cc4[nH]c(CO)c(CC(=O)O)c4CCC(=O)O)c(CC(=O)O)c3CCC(=O)O)c(CC(=O)O)c2CCC(=O)O)c1CC(=O)O", "Activity": "Active"}, {"smiles": "O=C(O)CCc1c[nH]c(Cc2[nH]c(Cc3[nH]c(Cc4[nH]c(CO)c(CC(=O)O)c4CCC(=O)O)c(CC(=O)O)c3CCC(=O)O)c(CCC(=O)O)c2CC(=O)O)c1CC(=O)O", "Activity": "Active"}, {"smiles": "CCc1c[nH]c(Cc2[nH]c(Cc3[nH]c(Cc4[nH]c(CO)c(CC(=O)O)c4CCC(=O)O)c(CC(=O)O)c3CCC(=O)O)c(CC(=O)O)c2CCC(=O)O)c1CC(=O)O", "Activity": "Active"}, {"smiles": "O=C(O)CCc1c[nH]c(Cc2[nH]c(Cc3[nH]c(Cc4[nH]c(CO)c(CC(=O)O)c4CCC(=O)O)c(CC(=O)O)c3CCC(=O)O)c(CC(=O)O)c2CCC(=O)O)c1CC(=O)O", "Activity": "Active"}]}, {"target": "T1, Uroporphyrinogen-III synthase (Homo sapiens)", "assay": "Compound was tested for its activity as inhibitor of Uroporphyrinogen III synthase; Yes", "values": [{"smiles": "CC(O)c1[nH]c(Cc2[nH]c(Cc3[nH]c(Cc4[nH]cc(CCC(=O)O)c4CC(=O)O)c(CCC(=O)O)c3CC(=O)O)c(CCC(=O)O)c2CC(=O)O)c(CCC(=O)O)c1CC(=O)O", "note": "(configuration not stated)", "Activity": "Active"}, {"smiles": "Cn1cc(CCC(=O)O)c(CC(=O)O)c1Cc1[nH]c(Cc2[nH]c(Cc3[nH]c(CO)c(CC(=O)O)c3CCC(=O)O)c(CC(=O)O)c2CCC(=O)O)c(CC(=O)O)c1CCC(=O)O", "Activity": "Active"}, {"smiles": "N#Cc1[nH]c(Cc2[nH]c(Cc3[nH]c(Cc4[nH]c(CO)c(CC(=O)O)c4CCC(=O)O)c(CC(=O)O)c3CCC(=O)O)c(CC(=O)O)c2CCC(=O)O)c(CC(=O)O)c1CCC(=O)O", "Activity": "Active"}, {"smiles": "Cn1c(Cc2[nH]cc(CCC(=O)O)c2CC(=O)O)c(CCC(=O)O)c(CC(=O)O)c1Cc1[nH]c(Cc2[nH]c(CO)c(CC(=O)O)c2CCC(=O)O)c(CC(=O)O)c1CCC(=O)O", "Activity": "Active"}, {"smiles": "O=C(O)CCc1c(Br)[nH]c(Cc2[nH]c(Cc3[nH]c(Cc4[nH]c(CO)c(CC(=O)O)c4CCC(=O)O)c(CC(=O)O)c3CCC(=O)O)c(CC(=O)O)c2CCC(=O)O)c1CC(=O)O", "Activity": "Active"}, {"smiles": "Cc1[nH]c(Cc2[nH]c(Cc3[nH]c(Cc4[nH]c(CO)c(CC(=O)O)c4CCC(=O)O)c(CC(=O)O)c3CCC(=O)O)c(CC(=O)O)c2CCC(=O)O)c(CC(=O)O)c1CCC(=O)O", "Activity": "Active"}]}]}
